# Test results as given in ChEMBL document CHEMBL1821663, “Synthesis and biological evaluation of glycogen synthase kinase 3 (GSK-3) inhibitors: an fast and atom efficient access to 1-aryl-3-benzylureas” (Bioorg Med Chem Lett, 2011).
# Legend:
# [1] = biological target: T1, Glycogen synthase kinase-3 beta (Homo sapiens, UniProt P49841); experiment: Inhibition of GSK3-beta assessed as [32P]gamma-ATP incorporation into substrate at 10 uM after 15 mins by gamma counting; values are per cent of control
# Target sequence in this assay (P49841 whole entry, looked up): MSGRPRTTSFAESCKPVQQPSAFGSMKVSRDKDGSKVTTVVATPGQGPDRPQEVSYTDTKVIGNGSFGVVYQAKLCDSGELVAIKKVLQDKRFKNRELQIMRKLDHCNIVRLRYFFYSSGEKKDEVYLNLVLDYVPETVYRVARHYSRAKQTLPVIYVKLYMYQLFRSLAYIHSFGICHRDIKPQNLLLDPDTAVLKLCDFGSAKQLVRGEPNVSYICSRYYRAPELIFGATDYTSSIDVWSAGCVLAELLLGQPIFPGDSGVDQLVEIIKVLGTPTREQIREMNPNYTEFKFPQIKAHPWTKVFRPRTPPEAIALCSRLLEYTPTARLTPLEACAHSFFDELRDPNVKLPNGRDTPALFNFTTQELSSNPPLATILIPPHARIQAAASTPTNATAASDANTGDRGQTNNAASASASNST
# [2] = biological target: Protein kinase C alpha type (Homo sapiens, UniProt P17252); experiment: Inhibition of human PKCalpha activity using Ser/Thr 7 peptide as substrate by FRET assay
# [3] = biological target: T1, Glycogen synthase kinase-3 beta; experiment: Inhibition of GSK3-beta assessed as [32P]gamma-ATP incorporation into substrate at 1 uM after 15 mins by gamma counting; values are per cent of control
# Target sequence in this assay (P49841 whole entry, looked up): as the sequence (P49841 whole entry, looked up) above
# [4] = biological target: Casein kinase I isoform epsilon (Homo sapiens, UniProt P49674); experiment: Inhibition of human CKI epsilon activity using Ser/Thr 11 peptide as substrate by FRET assay
# Casein kinase I isoform epsilon, sequence (P49674 whole entry, canonical isoform): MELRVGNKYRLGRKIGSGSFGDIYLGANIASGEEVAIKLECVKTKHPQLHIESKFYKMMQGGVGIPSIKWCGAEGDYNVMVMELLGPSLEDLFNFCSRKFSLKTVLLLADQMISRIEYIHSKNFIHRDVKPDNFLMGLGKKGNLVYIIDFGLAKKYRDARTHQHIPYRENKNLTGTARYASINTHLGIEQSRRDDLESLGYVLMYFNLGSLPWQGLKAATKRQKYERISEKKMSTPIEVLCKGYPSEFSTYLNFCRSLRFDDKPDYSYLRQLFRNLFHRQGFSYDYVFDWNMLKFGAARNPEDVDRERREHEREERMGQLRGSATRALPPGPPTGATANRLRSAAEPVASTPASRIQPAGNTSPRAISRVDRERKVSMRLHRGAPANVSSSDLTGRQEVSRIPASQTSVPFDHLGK
# [5] = species: Danio rerio; experiment: Toxicity in 8 to 15 -somite stage zebrafish embryo after 18 to 25 hrs; assay type: organism-based; conditions: in vivo
# [6] = biological target: T1, Glycogen synthase kinase-3 beta; experiment: Inhibition of human GSK3-beta activity using Ser/Thr 9 peptide as substrate by FRET assay
# Target sequence in this assay (P49841 whole entry): as the sequence (P49841 whole entry, looked up) above
# [7] = biological target: Glycogen synthase kinase-3 alpha (Homo sapiens, UniProt P49840); experiment: Inhibition of human GSK3alpha activity using Ser/Thr 11 peptide as substrate by FRET assay
# Glycogen synthase kinase-3 alpha, sequence (P49840 whole entry): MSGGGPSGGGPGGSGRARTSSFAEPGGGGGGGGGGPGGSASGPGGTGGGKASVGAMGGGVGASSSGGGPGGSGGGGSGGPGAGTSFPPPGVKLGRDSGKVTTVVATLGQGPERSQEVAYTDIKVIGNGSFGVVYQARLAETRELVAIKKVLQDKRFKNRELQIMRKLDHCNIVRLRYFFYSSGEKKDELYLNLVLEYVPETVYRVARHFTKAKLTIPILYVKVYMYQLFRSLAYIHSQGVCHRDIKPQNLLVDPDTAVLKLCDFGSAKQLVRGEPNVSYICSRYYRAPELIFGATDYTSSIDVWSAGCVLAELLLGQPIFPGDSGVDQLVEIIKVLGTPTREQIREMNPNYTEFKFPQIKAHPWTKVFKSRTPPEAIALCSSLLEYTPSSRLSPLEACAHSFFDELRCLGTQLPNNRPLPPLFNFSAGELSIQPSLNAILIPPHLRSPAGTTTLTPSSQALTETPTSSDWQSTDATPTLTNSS
# [8] = biological target: Cyclin-dependent kinase 5/CDK5 activator 1 (Homo sapiens, UniProt Q00535); experiment: Inhibition of human CDK5/p35 activity using Ser/Thr 12 peptide as substrate by FRET assay; assay type: protein-complex assay
# Cyclin-dependent kinase 5/CDK5 activator 1, sequence (Q00535 whole entry): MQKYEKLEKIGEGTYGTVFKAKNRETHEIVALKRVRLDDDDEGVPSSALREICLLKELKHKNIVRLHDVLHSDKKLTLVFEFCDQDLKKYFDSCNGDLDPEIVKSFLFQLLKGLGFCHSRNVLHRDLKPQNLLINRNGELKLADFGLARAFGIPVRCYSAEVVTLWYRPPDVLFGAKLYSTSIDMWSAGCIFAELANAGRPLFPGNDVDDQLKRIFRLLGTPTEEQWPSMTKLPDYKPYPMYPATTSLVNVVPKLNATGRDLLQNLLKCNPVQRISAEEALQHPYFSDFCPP
# Cyclin-dependent kinase 5/CDK5 activator 1, sequence (Q15078 whole entry, further chain): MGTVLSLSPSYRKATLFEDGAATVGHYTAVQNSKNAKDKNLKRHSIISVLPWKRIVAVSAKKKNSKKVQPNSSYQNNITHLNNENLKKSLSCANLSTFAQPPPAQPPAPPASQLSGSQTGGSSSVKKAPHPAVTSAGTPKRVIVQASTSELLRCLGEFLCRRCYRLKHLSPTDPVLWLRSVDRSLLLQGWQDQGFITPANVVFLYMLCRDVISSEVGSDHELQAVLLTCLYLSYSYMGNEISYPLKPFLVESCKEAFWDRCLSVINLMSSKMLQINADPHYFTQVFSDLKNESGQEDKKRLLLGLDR
# [9] = biological target: T2, Aurora kinase A (Homo sapiens, UniProt O14965); experiment: Inhibition of human AURKA activity using Ser/Thr 1 peptide as substrate by FRET assay
# T2 sequence (O14965 whole entry): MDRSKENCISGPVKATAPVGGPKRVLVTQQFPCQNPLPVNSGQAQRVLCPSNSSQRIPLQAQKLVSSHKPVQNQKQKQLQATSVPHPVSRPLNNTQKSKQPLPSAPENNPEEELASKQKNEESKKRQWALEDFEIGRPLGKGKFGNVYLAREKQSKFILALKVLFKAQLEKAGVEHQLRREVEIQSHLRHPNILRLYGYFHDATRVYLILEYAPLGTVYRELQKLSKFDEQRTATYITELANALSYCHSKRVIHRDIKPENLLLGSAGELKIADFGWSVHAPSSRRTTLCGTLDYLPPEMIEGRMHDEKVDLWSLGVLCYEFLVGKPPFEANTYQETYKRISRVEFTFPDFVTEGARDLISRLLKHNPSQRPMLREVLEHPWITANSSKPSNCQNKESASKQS
# [10] = species: Danio rerio; experiment: Toxicity in 8 to 15 -somite stage zebrafish embryo assessed as deformation in fish tail formation at 25 uM after 18 to 25 hrs; assay type: organism-based; conditions: in vivo
# [11] = species: Danio rerio; experiment: Toxicity in 8 to 15 -somite stage zebrafish embryo assessed as swimming movements in circles at 25 uM after 18 to 25 hrs; assay type: organism-based; conditions: in vivo
# [12] = species: Danio rerio; experiment: Toxicity in 8 to 15 -somite stage zebrafish embryo assessed as swimming movements in circles at 100 uM after 18 to 25 hrs; assay type: organism-based; conditions: in vivo
# [13] = species: Danio rerio; experiment: Toxicity in 8 to 15 -somite stage zebrafish embryo assessed as deformation in fish tail formation at 100 uM after 18 to 25 hrs; assay type: organism-based; conditions: in vivo
SMILES,residual activity [1] [%],IC50 [2] [µM],residual activity [3] [%],IC50 [4] [µM],Activity [5],IC50 [6] [µM],IC50 [7] [µM],IC50 [8] [µM],IC50 [9] [µM],Activity [10],Activity [11],Activity [12],Activity [13]
COc1ccc(CNC(=O)Nc2ncc([N+](=O)[O-])s2)cc1,20,> 100,55,> 100,Toxic,,,,,,,,
COc1ccc(CNC(=O)Nc2cc(-c3cccnc3F)ccn2)cc1,12,,,,,0.098,,,,,,,
COc1ccc(CNC(=O)Nc2nc3ccc([N+](=O)[O-])cc3s2)cc1,,> 100,,> 100,,3.64,0.22,> 100,> 100,,,,
CCOC(=O)c1sc(NC(=O)NCc2ccc(F)cc2)nc1C,,,,,Non-toxic,,,,,,,,
Nc1nc(NCCNc2ncc(-c3ncc[nH]3)c(-c3ccc(Cl)cc3Cl)n2)ccc1[N+](=O)[O-],,,,,Non-toxic,,,,,Toxic,Toxic,,
COc1ccc(CNC(=O)Nc2nc3ccc(C#N)cc3s2)cc1,24,,57,,,,,,,,,,
COc1ccc(CNC(=O)Nc2ccc([N+](=O)[O-])cn2)cc1,31,,75,,,,,,,,,,
COc1ccc(CNC(=O)Nc2nc3ccc(-c4nnn[nH]4)cc3s2)cc1,18,24.2,69,15.3,Non-toxic,0.14,0.13,26.4,4.8,,,Toxic,Toxic
COc1ccc(CNC(=O)Nc2cc(-c3nnn[nH]3)ccn2)cc1,24,> 100,82,> 100,Non-toxic,0.51,0.37,> 100,> 100,,,Toxic,Toxic
COc1ccc(CNC(=O)Nc2ccc(C#N)cn2)cc1,40,,79,,,,,,,,,,
COc1ccc(CNC(=O)Nc2cc(-c3ccccc3OC)ccn2)cc1,32,,91,,,,,,,,,,
COc1ccc(CNC(=O)Nc2cc(C#N)ccn2)cc1,42,> 100,101,> 100,,1.43,1.12,> 100,> 100,,,,
